# Reference: patent US20250154140A1 (Sunnybrook Research Institute, priority 2022, published 2025)
# Assays:
# [1] = tested on: diverse panel of 58 kinases; test: Kinase panel (Eurofins KinaseProfiler); format: biochemical; conditions: 1 uM
# Procedure: For the kinase panel, % inhibition was measured using standardized assay conditions at the KinaseProfiler service (Eurofins Pharma Discovery Services). Compounds were sent for testing as dry powder.
# [2] = tested on: Baby Mouse Kidney (BMK) cells; test: Actinomycin D / spontaneous cell death assay in BMK cells; format: cell-based; conditions: for tolerability by the cells: BMKwt cells; for effect on spontaneous cell death / effect on actinomycin D induced cell death: BMKwt; for effect on spontaneous cell death: 0 mM actinomycin D; for effect on actinomycin D induced cell death: 3.125, 6.25, 12.5 nM actinomycin D
# Procedure: Baby Mouse Kidney (BMK) cells were from (Mathew et al., 2008). BMK double knockout, SMAC-mCherry, and BAX^−/− cell lines were generated in house as described (Niu et al., 2017). BMK lines were grown in DMEM supplemented with 10% Fetal Bovine Serum and 1×MEM non-essential amino acids in a humidified incubator at 37° C. and 5% CO2.
# For cell death assays with actinomycin D, 3000 WT or DKO BMK cells were cultured in a 384 well plate and incubated overnight. The next morning, cells were treated with actinomycin D for 2 hours before the addition of BAX inhibitor. Actinomycin D and BAX inhibitor (where relevant) were then incubated for 24 hours before staining with Hoechst, AnnexinV-Alexa488, and TMRE for 30 minutes. Cells were imaged by confocal microscopy (Opera Phenix—PerkinElmer) and subsequently analyzed with Harmony (PerkinElmer) software. Cell death was scored by three criteria: the loss of TMRE signal, the appearance of AnnexinV-Alexa488 signal, and nuclear shrinkage visualized by Hoechst.
# BAX = BAX (Homo sapiens, UniProt Q07812); test: Permeabilization of isolated mitochondria, Smac-mCherry release (cBID activated BAX); format: biochemical, mouse; design: made in house; host or cells: Escherichia coli BL21-AI; conditions: concentrations up to 60 uM
# Procedure: Animal breeding and handling was performed in accordance with local regulations after approval by the Animal Care Committee at Sunnybrook Research Institute, Toronto. The isolation of mouse-liver mitochondria, and use with Bcl-2 family proteins to measure activity and protein-protein interactions was previously described in detail (Pogmore et al., 2016). In mouse liver, BAX is either cytoplasmic or loosely bound to mitochondria. Therefore, BAX is not present in isolated mitochondria. For this reason, when mitochondria are isolated from liver from BAK−/− mice they contain neither BAX or BAK. […] The supernatant was discarded, and the remaining pellet is resuspended in regeneration buffer (300 mM Trehalose, 10 mM HEPES-KOH pH 7.7, 80 mM KCl, 1 mM EGTA, 1 mM EDTA, 0.1% BSA, 5 mM succinate, 2 mM ATP, 10 μM phosphocreatine, and 10 μg/mL creatine kinase) at a protein concentration of 1 mg/mL, (determined by Bradford assay) for immediate use as the source of membranes for FRET measurements. […]
# For BAX^−/−/BAK^−/−BMK SMAC-mCherry mitochondria, 2 nM cBID and 20 nM BAX was used to fully permeabilize the mitochondria. […] The percentage of SMAC-mCherry release was determined by fluorometric analysis of the supernatant and pellet fractions by measuring the fluorescence intensity (F) of mCherry (excitation 580, emission 610 in a Tecan M1000).
# Sequence of BAX (Q07812 whole entry): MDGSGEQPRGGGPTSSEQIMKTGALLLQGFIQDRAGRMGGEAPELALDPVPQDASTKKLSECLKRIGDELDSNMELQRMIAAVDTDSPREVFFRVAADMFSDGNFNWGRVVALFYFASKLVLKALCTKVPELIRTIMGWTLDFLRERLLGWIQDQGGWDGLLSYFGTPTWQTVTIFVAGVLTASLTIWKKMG
Compound,activity across kinase panel (percent kinase inhibition) [1],"inhibition of actinomycin D mediated cell death in cells expressing either BAX or BAK ([2]; 1.25 or 2.5 uM compound, actinomycin D 25 nM (wild-type), 100 nM (knock-out))",tolerability by the cells [2],effect on spontaneous cell death [2],effect on actinomycin D induced cell death [2],inhibition of BAX mediated permeabilization of mitochondria (BAX),"spontaneous cell death in culture ([2]; BMK-wt, 0 nM actinomycin D, from ~30% without compound) [%]"
"COc1cc2ccnc(Nc3ccc(F)c(Cl)c3)c2cc1NC(=O)CCCN1CCCCC1 [Compound I-1, N-(1-((3-chloro-4-fluorophenyl)amino)-6-methoxyisoquinolin-7-yl)-4-(piperidin-1-yl)butanamide]",minimal activity,most effective inhibitor,well-tolerated,reduced the amount of spontaneous cell death,reduced cell death,equally effective inhibitors,
"COc1cc2ncnc(Nc3ccc(F)c(Cl)c3)c2cc1NC(=O)/C=C/CN1CCCCC1 [Dacomitinib, reference compound]",,,well-tolerated,reduced the amount of spontaneous cell death,reduced cell death,equally effective inhibitors,< 10
